Test results reported in patent EP0147851B1, “Water soluble forms of polyene antibiotics, and process for preparing them” (priority 1983, dated 1985).
Like-named read-outs stand apart in the source and are kept apart here.

Experiments:
[1] = test system: aus menschlichem Blut hergestellten Suspensionen roter Blutkörperchen; details: literature value; cited from earlier work
Candida albicans = assay: Biological potency of Nystatin, agar diffusion method; assay type: cell-based
Description: Die vorhergehenden Beispiele beweisen, daß die Polyenantibiotika mit γ-Cyclodextrin Einschlußkomplexe bilden und dadurch ihre Stabilität und Wasserlöslichkeit bedeutend steigt. Entscheidend ist jedoch, ob auch die antifungale Wirkung geblieben ist. Um diese Frage zu beantworten, wurde die antifungale Wirkung der auf unterschiedliche Weise hergestellten Komplexe sowohl sofort nach der Herstellung wie auch nach Lagerung unter Bedingungen, unter denen der nicht durch Komplexbildung geschützte Wirkstoff bereits beträchtliche Aktivitätseinbußen erleidet, untersucht. • a) Flavofungin-γ-Cyclodextrin-Komplex Die antifungale Wirkung der wäßrigen Lösung dieses Komplexes wurde an 6 Spaltpilzen und 13 Fadenpilzen untersucht. Die Ergebnisse sind in der Tabelle 7 zusammengefaßt. Auf Flavofungin bezogen war die minimale Hemmkonzentration in jedem Falle 10-25 µg/ml, was der Wirksamkeit des nicht komplexgebundenen Wirkstoffes entspricht. Es ist besonders bemerkenswert, daß die Substanz auch gegen phytopathogene Fusarien wirkt, d.h. eine Anwendung gegen pilzliche Pflanzenschädlinge begründet ist. Der komplexgebundene Wirkstoff wirkt in der gleichen Konzentration wie Flavofungin. Die Untersuchungenwurden mit der Agardiffusionsmethode vorgenommen. Der Komplex hat den Vorteil, daß zum Bereiten der Lösungen keine organischen Lösungsmittel (DMF bzw. DMSO) erforderlich sind. […]

[2] = test system: aus menschlichem Blut hergestellten Suspensionen roter Blutkörperchen
Description: Dyn. 6, 408-414 [1983]) untersucht. Die Ergebnisse werden in Form der zu 50 %iger Hämolyse gehörenden Konzentrationen (EH₅₀) angegeben. […] Auch die hämolytische Wirkung einer der im Komplex gebundenen γ-CD-Menge entsprechenden Menge γ-Cyclodextrin wurde untersucht.

C[C@@H]1[C@H](O)[C@@H](C)/C=C/C=C/CC/C=C/C=C/C=C/C=C/C(O[C@H]2O[C@H](C)[C@@H](O)[C@H](N)[C@@H]2O)CC2O[C@](O)(CC(O)C(O)CCC(O)CC(O)CC(O)CC(=O)O[C@H]1C)CC(O)C2C(=O)O (some centres unmarked) [Nystatin]
EH₅₀ (concentration for 50 % haemolysis) [1]: 50 µg/mL
biologische Aktivität (Candida albicans): 5033 E/mg
biologische Aktivität after treatment without γ-CD (Candida albicans; base substance treated as in Beispiel 5 (40 °C, 24 Stunden in water, lyophilised) without γ-CD): wesentlich schlechter
Hämolyse ([2]; 70 µg/ml Nystatin): 70%
EH₅₀ (concentration for 50 % haemolysis) ([2]; complexes berechnet als Wirkstoff): 57 µg/mL
